# According to US10815219B2, “2,4-diaminoquinazoline derivatives for inhibiting endoplasmic reticulum (ER) stress” (The Board of Regents of the University of Oklahoma, priority 2017, dated 2020):
# Where two headings read alike, the source gives them in different places.
# System: INS-1 cells
# Assay: INS-1 cell survival after Tm treatment (CellTiter-Glo, intracellular ATP)
# Format: cell-based, rat
# Settings: for Maximum activity: % rescue from Tm (0.1 μg/mL)-induced reduction of cell viability, Tm alone 0%, DMSO 100%
# Protocol: A structure-activity-relationship (SAR) study was thus conducted to improve the weak potency of lead compound 5a. Newly synthesized or commercially available compounds were tested for their β-cell-protective activity against ER stress in rat INS-1 β-cells. […] Maximum activity value in the tables is reported as % rescue from Tm (0.1 μg/mL)-induced reduction of cell viability. The values for Tm treatment alone and control (DMSO, without Tm) treatment are designated as 0% and 100%, respectively in all tables. EC50 values (the concentrations that reach half-maximal activity) for INS-1 cell viability were calculated with GraphPad Prism from the data of ten 2-fold serial titration points in all tables. All experiments were performed in triplicate in all tables.
# INS-1 cells or βTC6 cells were seeded at 3×10^3 cells/well in a 384-well plate and treated with compounds at the indicated concentrations. After 3 d treatment, the medium was aspirated and 20 μL/well of CellTiter-Glo reagent (Promega, WI, USA) was added for the detection of intracellular ATP levels. Cell viability was measured with an EnVision multilabel plate reader (PerkinElmer, MA, USA).
# [1] = INS-1 cell viability, Tm 0.1 μg/mL, 72 h, ten 2-fold serial titration points, Table 2, read-out: EC50
# [2] = INS-1 cell viability in presence of Tm, read-out: EC50
# [3] = INS-1 cell viability, Tm 0.1 μg/mL, 72 h, ten 2-fold serial titration points, Table 1, read-out: EC50
# [4] = INS-1 cell viability, Tm 0.1 μg/mL, 72 h, ten 2-fold serial titration points, Table 3, read-out: EC50
SMILES,"Maximum activity (72 h, Table 2)",EC50 [1],"Maximum activity (72 h, Table 1)",EC50 [3],further results
OCC1CCCCN1c1nc(NCCc2ccccc2Cl)c2ccccc2n1 (racemic) [Compound 6l],51.4%,470 ± 450 nM,–,–,–
"OCC1CCCN1c1nc(NCCc2ccccc2)c2ccccc2n1 (stereo not drawn) [Compound 5a, (1-(4-(phenethylamino)quinazolin-2-yl)pyrrolidin-2-yl)methanol]",–,–,54.4%,–,"EC50 [2]: ~500 nM; EC50 (Rattus norvegicus, INS1, 72 h, INS-1 cell viability, Tm 0.1 μg/mL, 72 h, ten 2-fold serial titration points, Table 1, read-out: EC50): 480 ± 190 nM; EC50 (Rattus norvegicus, INS1, running text, INS-1 cell viability in presence of Tm, read-out: EC50): 480 ± 190 nM"
OCC1CCCN1c1nc(NCCc2ccc(F)cc2)c2ccccc2n1 (stereo not drawn) [Compound 5b],–,–,56.2%,2130 ± 410 nM,–
OCC1CCCN1c1nc(NCCc2ccc(Cl)cc2)c2ccccc2n1 (stereo not drawn) [Compound 5c],–,–,57.3%,510 ± 90 nM,EC50 [2]: ~500 nM
OCC1CCCN1c1nc(NCCc2ccc(Br)cc2)c2ccccc2n1 (stereo not drawn) [Compound 5d],–,–,44.1%,650 ± 160 nM,EC50 [2]: ~500 nM
Cc1ccc(CCNc2nc(N3CCCC3CO)nc3ccccc23)cc1 (stereo not drawn) [Compound 5e],–,–,34.2%,660 ± 210 nM,EC50 [2]: ~500 nM
OCC1CCCN1c1nc(NCCc2cccc(F)c2)c2ccccc2n1 (stereo not drawn) [Compound 5f],–,–,51.3%,1150 ± 190 nM,–
OCC1CCCN1c1nc(NCCc2cccc(Cl)c2)c2ccccc2n1 (stereo not drawn) [Compound 5g],–,–,51.5%,1050 ± 180 nM,–
OCC1CCCN1c1nc(NCCc2cccc(Br)c2)c2ccccc2n1 (stereo not drawn) [Compound 5h],–,–,53.2%,780 ± 240 nM,–
COc1cccc(CCNc2nc(N3CCCC3CO)nc3ccccc23)c1 (stereo not drawn) [Compound 5i],–,–,54.9%,1510 ± 130 nM,–
OCC1CCCN1c1nc(NCCc2ccccc2F)c2ccccc2n1 (stereo not drawn) [Compound 5j],–,–,52.5%,1700 ± 230 nM,–
OCC1CCCN1c1nc(NCCc2ccccc2Cl)c2ccccc2n1 (stereo not drawn) [Compound 5k],–,–,50.6%,1440 ± 270 nM,–
OC[C@@H]1CCCN1c1nc(NCCc2ccccc2Br)c2ccccc2n1 [Compound 5l],–,–,39.0%,1880 ± 320 nM,–
COc1ccccc1CCNc1nc(N2CCCC2CO)nc2ccccc12 (stereo not drawn) [Compound 5m],–,–,56.6%,3560 ± 150 nM,–
OCC1CCCCN1c1nc(NCCc2ccccc2)c2ccccc2n1 (stereo not drawn) [Compound 6a],55.7%,360 ± 210 nM,–,–,–
OCC1CCCCN1c1nc(NCCc2ccc(F)cc2)c2ccccc2n1 (stereo not drawn) [Compound 6b],47.5%,310 ± 260 nM,–,–,EC50 improvement over 2-(hydroxymethyl)pyrrolidin-1-yl counterpart (6-series versus 5-series counterpart): ~7 fold
OCC1CCCCN1c1nc(NCCc2ccc(Cl)cc2)c2ccccc2n1 (stereo not drawn) [Compound 6c],57.6%,170 ± 50 nM,–,–,–

SMILES,"Maximum activity (72 h, Table 2)",EC50 [1],"Maximum activity (72 h, Table 1)",EC50 [3],further results
OCC1CCCCN1c1nc(NCCc2ccc(Br)cc2)c2ccccc2n1 (stereo not drawn) [Compound 6d],52.8%,340 ± 90 nM,–,–,–
Cc1ccc(CCNc2nc(N3CCCCC3CO)nc3ccccc23)cc1 (stereo not drawn) [Compound 6e],33.6%,140 ± 40 nM,–,–,–
COc1ccc(CCNc2nc(N3CCCCC3CO)nc3ccccc23)cc1 (stereo not drawn) [Compound 6f],58.6%,310 ± 120 nM,–,–,–
OCC1CCCCN1c1nc(NCCc2cccc(F)c2)c2ccccc2n1 (stereo not drawn) [Compound 6g],57.3%,1880 ± 180 nM,–,–,–
OCC1CCCCN1c1nc(NCCc2cccc(Cl)c2)c2ccccc2n1 (stereo not drawn) [Compound 6h],46.2%,790 ± 300 nM,–,–,–
OCC1CCCCN1c1nc(NCCc2cccc(Br)c2)c2ccccc2n1 (stereo not drawn) [Compound 6i],51.7%,770 ± 400 nM,–,–,–
COc1cccc(CCNc2nc(N3CCCCC3CO)nc3ccccc23)c1 (stereo not drawn) [Compound 6j],69.2%,2590 ± 310 nM,–,–,EC50 (INS-1 cell viability in presence of Tm): increased
OCC1CCCCN1c1nc(NCCc2ccccc2F)c2ccccc2n1 (stereo not drawn) [Compound 6k],60.3%,1460 ± 460 nM,–,–,–
OCC1CCCCN1c1nc(NCCc2ccccc2Br)c2ccccc2n1 (stereo not drawn) [Compound 6m],44.2%,1410 ± 310 nM,–,–,–
COc1ccccc1CCNc1nc(N2CCCCC2CO)nc2ccccc12 (stereo not drawn) [Compound 6n],46.9%,1600 ± 150 nM,–,–,–
COc1ccc(CNc2nc(N3CCCC3CO)nc3ccccc23)cc1 (stereo not drawn) [Compound 8c],–,–,–,–,"Maximum activity (72 h, Table 3): 57.2%; EC50 [4]: 4050 ± 130 nM"
COc1ccc(CNc2nc(N3CCCC3CO)nc3ccccc23)cc1OC (stereo not drawn) [Compound 8d],–,–,–,–,"Maximum activity (72 h, Table 3): 44.9%; EC50 [4]: 1850 ± 390 nM"
OCC1CCCCN1c1nc(NCc2ccccc2)c2ccccc2n1 (stereo not drawn) [Compound 9a],–,–,–,–,"Maximum activity (72 h, Table 3): 56.4%; EC50 [4]: 230 ± 70 nM"
OCC1CCCCN1c1nc(NCc2ccc(Cl)cc2)c2ccccc2n1 (stereo not drawn) [Compound 9b],–,–,–,–,"Maximum activity (72 h, Table 3): 54.7%; EC50 [4]: 210 ± 80 nM"
COc1ccc(CNc2nc(N3CCCCC3CO)nc3ccccc23)cc1OC (stereo not drawn) [Compound 9d],–,–,–,–,"Maximum activity (72 h, Table 3): 69.4%; EC50 [4]: 3640 ± 380 nM"
"Nc1nc(Sc2cc(-n3cccc3)c(Cl)cc2[N+](=O)[O-])n[nH]1 [RH01687, reference compound]",–,–,–,–,"concentration exhibiting the maximum protective activity (INS-1 cells, Tm 0.1 μg/mL, 72 h, based on dose-dependent curves): 30 µM"
